Measured values taken from patent US20240294478A1, “ANTI-CANCER COMPOUNDS AND METHODS OF USE” (YALE UNIVERSITY, priority 2021, published 2024).

Columns and labels:
[1] = system: LN229 MGMT−/MMR− flank tumors; experiment: Murine flank tumor model, LN229 MGMT-/MMR-; type: in vivo; details: for tumor growth, MGMT−/MMR− flank tumors: P.O.; for median OS: LN229 MGMT−/MMR− flank tumor-bearing mice, 5 mg/kg
Source text: FIGS. 9A-91: KL-50 is safe and efficacious on both MGMT−/MMR+ and MGMT−/MMR-flank tumors over a wide range of treatment regimens and conditions. […] (FIG. 9C) Mean body weight of mice during LN229 flank tumor experiments. (FIG. 9D) Kaplan-Meier analysis of LN229 MGMT−/MMR− xenograft flank tumor-bearing mice to determine survival rate based on death, removal from study if mouse body weight loss exceeded 20% of initial body weight, or if tumor volume exceeded 2000 mm^3. […] (FIGS. 9H-91) Xenograft LN229 MGMT−/MMR+ and LN229 MGMT−/MSH6—flank tumors with a larger average starting tumor size of −400 mm^3 and −350 mm^3 respectively, treated with 3 weekly cycles of P.O administration of 10% cyclodextrin (n=4) or KL-50 (n=4, 3 cycles of 25 mg/kg on Monday, Wednesday, and Friday). The study period was limited by control groups which had to be euthanized for exceeding the ethical maximum allowed tumor size, thus ending the study. In all panels, points, mean; error bars, SEM; *, P<0.05; **, P<0.01; ***, P<0.001; ****, P<0.0001; ns, not significant.
Mouse Protocols for Flank Studies. A mouse tumor model was established by subcutaneously implanting human LN229 (MGMT−/MMR+) or LN229 (MGMT−/MMR−) cells. Cells were cultured as a monolayer in DMEM+10% FBS (Thermo Fisher) at 37° C. in a humidified atmosphere with 5% CO2 and passaged between one and three days prior to implantation and media was replaced every 2-3 days as needed to maintain cell viability. Cells were not allowed to exceed 80% confluency. On the day of implantation, cells were trypsinized, washed with complete media and pelleted by centrifugation at 1200 rpm for 5 minutes. The supernatant was decanted, and cells were washed three times with sterile PBS and pelleted by centrifugation. During the final centrifugation, viability was determined using trypan blue exclusion. Cells were resuspended in sterile PBS and diluted 1:1 in Matrigel (Coming, Cat #47743-716) for a final concentration of 5×10^6 cells/100 μL. 5 million cells were injected into the flank of female nude mice (Envigo, Hsd:Athymic Nude-Fox1nu, 3-4 weeks age, 15 g). […] Caliper measurements were obtained during the dosing period and at least two weeks following treatment. Mice were euthanized if body weight loss exceeded 20% or if tumor volume increased to greater than 2000 mm^3. Kaplan-Meier analysis was used to evaluate survival rate based on death or removal from study.

[2] = system: HCT116 MLH1−/− cells; experiment: Short-term viability assay, HCT116 MLH1-/- cells +/- O6BG; type: cell-based, human; details: with or without 10 μM O6BG pre-treatment
Description: FIG. 1B: Short-term viability assay curves for KL-50 in DLD1 MSH6-deficient cells pre-treated with 0.01% DMSO control (CTR) or 10 μM O^6BG (+O^6BG) for 1 h prior to KL-50 addition. […] Short-term viability assay curves for (FIG. 1E) KL-50 in HCT116 MLH1−/−cells or (FIG. 1F) HCT116 cells complemented with chromosome 3 carrying wildtype MLH1 (+Chr3) pre-treated with 0.01% DMSO control or 10 μM O^6BG (+O^6BG) for 1 h prior to KL-50 addition. […] For these figures, points, mean; error bars, SD; n>3 technical replicates.
Short-term Cell Viability Assay. Cells were seeded in 96-well plates at 1000 or 2000 cells/well and allowed to adhere at 23° C. for 60 min and then incubated overnight at 37° C. Cells were treated with indicated concentrations of compounds in triplicate for 4-6 days prior to fixation with 3.7% paraformaldehyde and nuclear staining with 1 μg/mL Hoechst 33342 dye. Cells were imaged on a Cytation 3 imaging reader (BioTek) and quantified using CellProfiler software. For in vitro short-term growth delay experiments, IC50 values were determined from the nonlinear regression equation, [inhibitor] vs normalized response with variable slope.

[3] = system: FANCD2 ubiquitination in LN229 MGMT+/−, MMR+/− cells; experiment: Western blot analysis of FANCD2 ubiquitination; type: cell-based, human
Source text: FIGS. 8A-8K. (FIG. 8A) Change in percent cells with 1 micronuclei from baseline (DMSO control) after treatment as in FIGS. 5A and 5C. Columns, mean; error bars, SD; n>15 technical replicates; **** p<0.0001; ns, not significant. (FIG. 8B) Short-term viability assay curves for KL-50 in PD20 cells, deficient in FANCD2 (FANCD2−/−) or complemented with FANCD2 (+FANCD2). (FIG. 8C) Short-term viability assay curves for KL-50 in PEO4 (BRCA2+) and PEO1 (BRCA2−/−) cells pre-treated with 0.01% DMSO control or 10 μM O^6BG (+O^6BG) for 1 h prior to KL-50 addition. (FIG. 8D) Short-term viability assay curves for KL-50 in DLD1 BRCA2+/− and BRCA2−/−cells pre-treated with 0.01% DMSO control or 10 μM O^6BG (+O^6BG) for 1 h prior to KL-50 addition. For FIGS. 8B-8D, points, mean; error bars, SD; n=3 technical replicates. […] (FIG. 8E) Validation of micronuclei identification using olaparib as positive control. Change in percent cells with 1 micronuclei from baseline (DMSO control) after treatment with olaparib (10 μM) for 48 h in LN229 MGMT+/−, MMR+/−cells. Columns, mean; error bars, SD; n>15 technical replicates; **** p<0.0001. […] The % FANCD2 ubiquitination (% FANCD2 Ub) is quantified as the background-corrected integrated band intensity of the upper band divided by the sum of the background-corrected integrated band intensities of the upper and lower bands. […]

SMILES | tumor growth, MGMT−/MMR− flank tumors ([1]; 5 mg/kg MWF x 3 weeks) | body weight during flank tumor experiments ([1]; 5 mg/kg MWF x 3 weeks, compared to TMZ or control) | median OS ([1]; Kaplan-Meier) | increase in median OS for KL-50 vs TMZ ([1]; Kaplan-Meier, MGMT−/MMR− flank) | cytotoxicity in HCT116 MLH1-deficient cells [2] | FANCD2 ubiquitination [3]
NC(=O)c1ncn2c(=O)n(CCF)nnc12 [KL-50] | potently suppressed tumor growth | no significant changes in body weight | greater than 15 weeks | greater than 5 week | induced selective tumor cell killing specifically in the setting of O^6BG-induced MGMT suppression | observed specifically in MGMT-cells
Cn1nnc2c(C(N)=O)ncn2c1=O [TMZ, 4-methyl-5-oxo-2,3,4,6,8-pentazabicyclo[4.3.0]nona-2,7,9-triene-9-carboxamide, reference compound] | no efficacy | – | 10 weeks | – | inactive | only in MGMT−/MMR+cells
